Data published in patent publication US20200102264A1, “MARMELIN ANALOGS AND METHODS OF USE IN CANCER TREATMENT” (THE UNIVERSITY OF KANSAS, priority 2014, published 2020).

Key:
[1] = tested on: HCT116 colon cancer cells; test: hexoseaminidase cell proliferation assay, HCT116; assay type: cell-based; details: Homo sapiens, HCT-116
Text: (§1) Using hexoseaminidase assay, we determined the effect of the compounds on cell proliferation. […]
(§2) Using hexoseaminidase assay, we determined the effect of the compounds on cell proliferation. […] […] […] Overall, the analogs can be used as chemotherapeutic agents against colon and pancreatic cancer.

SW480 colon cancer cells = test: hexoseaminidase cell proliferation assay, SW480; assay type: cell-based; details: Homo sapiens
Text: as §1, §2

[2] = tested on: MiaPaCa-2 pancreatic cancer cells; test: hexoseaminidase cell proliferation assay, MiaPaCa-2; assay type: cell-based; details: Homo sapiens, MIA PaCa-2
Description: (§3) Using hexoseaminidase assay, we determined the effect of the compounds on cell proliferation. […] The IC50 value at 48 hours is below 10 μM in all the cancer cell lines.
(§4) Using hexoseaminidase assay, we determined the effect of the compounds on cell proliferation. […] The MRL16 IC50 value at 48 hours is below 0.3 μM in Colon cancer cell lines. […] Overall, the analogs can be used as chemotherapeutic agents against colon and pancreatic cancer.

[3] = tested on: PanC-1 pancreatic cancer cells; test: hexoseaminidase cell proliferation assay, PanC-1; assay type: cell-based; details: Homo sapiens
Description: as §3, §4

KU7 bladder cancer cells = test: hexoseaminidase cell proliferation assay, KU7; assay type: cell-based
Description: as §3

[4] = tested on: 253JBV bladder cancer cells; test: hexoseaminidase cell proliferation assay, 253JBV; assay type: cell-based
Description: as §3

HCT116 cells [5] = test: cell cycle analysis, HCT116; assay type: cell-based; details: for cell cycle effect (in words): HCT116 cells
[6] = tested on: colon, pancreatic and bladder cancer cells; test: hexoseaminidase cell proliferation assay, summaries over cell lines; assay type: cell-based; details: for inhibition of cell proliferation (in words): dose and time dependent
Description: Water solubility studies were performed with the CD/analog complexes. […] The observed IC50 value of THBCD at 48 h is below 10 μM in all the colon, pancreatic and bladder cancer cells.
as §3, §4

HCT116 cells [7] = test: colony formation, HCT116; assay type: cell-based
SW480 cells [8] = test: colony formation, SW480; assay type: cell-based
MiaPaCa-2 cells = test: colony formation, MiaPaCa-2; assay type: cell-based
PanC-1 cells = test: colony formation, PanC-1; assay type: cell-based
cancer stem cells = test: colonosphere formation; assay type: cell-based
Description: It was also determined the analogs inhibit colonosphere formation from cancer stem cells. […] The columns are 0, 10, 25, and 50 micromolar concentrations of the compounds labeled by rows.
The effect of the compounds on colonosphere formation was determined. […] Overall, the analogs have shown they can be used as chemotherapeutic agents against colon, pancreatic and bladder cancer.

[9] = tested on: HCT116 colon cancer tumor xenografts; test: HCT116 colon cancer tumor xenografts in nude mice; assay type: in vivo
Description: (§5) For in vivo, HCT116 cells were injected into the blanks of nude mice, after one week when there was a palpable tumor and these compounds were injected intraperitonially (5 mg/kg body weight) every day for 21 days. Tumor volumes were measured weekly. On 29th day mice were euthanized and the tumors were removed and weighed for use in histology, immunohistochemistry, and gene expression studies. Both THB and THBCD inhibited growth of the tumor. It is noted that the images of FIG. 4C are from left to right: control; THB; and THBCD.
as §5, with “DBQ” for “Both THB and THBCD”, “inhibited the” for “inhibited”, “16C” for “4C”, “control;” for “control; THB;”, “DBQ.” for “THBCD.”
FIGS. 19A and 19B show MRL 16 inhibits tumor growth, such as on colon cancer tumor xenografts. For in vivo, HCT116 cells were injected into the blanks of nude mice, after one week when there was a palpable tumor and these compounds were injected intraperitonially (2 mg/kg body weight) every day for 21 days. Tumor volumes were measured weekly. On 29th day mice were euthanized and the tumors were removed and weighed. MRL16 inhibited growth of the tumor.

SW480 cells [10] = test: cell cycle analysis, SW480; assay type: cell-based
Description: The analogs were tested to determine the ability induce death of colon cancer cells.

HCT116 cells [11] = test: colonosphere formation, HCT116; assay type: cell-based
Text: These compounds may be preferred in some instances.

[12] = intraperitoneal 5 mg/kg body weight every day for 21 days
[13] = intraperitoneal 2 mg/kg body weight every day for 21 days

For `CC(C)(C)C1=CC(=NNC(=O)c2cc3ccccc3cc2O)C=C(C(C)(C)C)C1=O` [DBQ], the IC50 ([1]; HCT116, 24 h) was 10 µM, the IC50 ([1]; HCT116, 48 h) was 5 µM and the IC50 ([1]; HCT116, 72 h) was 5 µM. It also gave an IC50 (SW480 colon cancer cells; SW480, 24 h) of 10 µM, an IC50 (SW480 colon cancer cells; SW480, 48 h) of 6 µM and an IC50 (SW480 colon cancer cells; SW480, 72 h) of 5 µM. For the same molecule, the IC50 ([2]; MiaPaCa-2, 24 h) was 25 µM, the IC50 ([2]; MiaPaCa-2, 48 h) was 8 µM and the IC50 ([2]; MiaPaCa-2, 72 h) was 6 µM. The IC50 ([3]; PANC-1, 24 h) was 45 µM, the IC50 ([3]; PANC-1, 48 h) was 9 µM and the IC50 ([3]; PANC-1, 72 h) was 7 µM. It also gave an IC50 (KU7 bladder cancer cells; KU7, 24 h) of 20 µM, an IC50 (KU7 bladder cancer cells; KU7, 48 h) of 8 µM and an IC50 (KU7 bladder cancer cells; KU7, 72 h) of 6 µM. For the same molecule, the IC50 ([4]; 24 h) was 50 µM, the IC50 ([4]; 48 h) was 25 µM and the IC50 ([4]; 72 h) was 6 µM. For the same molecule, the “cell cycle effect (in words)” value (HCT116 cells [5]; 5 μM and 10 μM, 24 hours, propidium iodide flow cytometry) was “induces G2/M arrest”, the IC50 ([6]; 48 h, all the colon, pancreatic and bladder cancer cell lines) was < 10 µM and the “inhibition of cell proliferation (in words)” value (shortened to “inhibition”) [6] was “potent inhibitor”. For the same molecule, the colony formation (HCT116 cells [7]) was “inhibit colony formation”, the colony formation (SW480 cells [8]) was “inhibit colony formation” and the colony formation (MiaPaCa-2 cells) was “inhibit colony formation”. For the same molecule, the colony formation (PanC-1 cells) was “inhibit colony formation”, the colonosphere formation (cancer stem cells) was “potent inhibitors of colonosphere formation” and the tumor volume [9, 12] was “significantly reduced”. For the same molecule, the tumor weight [9, 12] was “significantly reduced”.
`C/C(=N\NC(=O)c1ccncc1)c1ccc2ccccc2c1O` [MRL16] was tested, and the IC50 ([1]; HCT116, 24 h) was > 2 µM, the IC50 ([1]; HCT116, 48 h) was 0.3 µM and the IC50 ([1]; HCT116, 72 h) was 0.2 µM. The IC50 (SW480 colon cancer cells; SW480, 24 h) was > 2 µM, the IC50 (SW480 colon cancer cells; SW480, 48 h) was 0.3 µM and the IC50 (SW480 colon cancer cells; SW480, 72 h) was 0.2 µM. The IC50 ([2]; MiaPaCa-2, 24 h) was > 10 µM, the IC50 ([2]; MiaPaCa-2, 48 h) was > 10 µM and the IC50 ([2]; MiaPaCa-2, 72 h) was 5 µM. For the same molecule, the IC50 ([3]; PANC-1, 24 h) was > 10 µM, the IC50 ([3]; PANC-1, 48 h) was 4 µM and the IC50 ([3]; PANC-1, 72 h) was 2.5 µM. For the same molecule, the “G0/G1 (%)” value (HCT116 cells [5]; HCT116, 24 h) was 57.3%, the “G2/M (%)” value (HCT116 cells [5]; HCT116, 24 h) was 26.9% and the “S (%)” value (HCT116 cells [5]; HCT116, 24 h) was 14.5%. The “SubG0 Dead Cells (%)” value (HCT116 cells [5]; HCT116, 24 h) was 1.11%, the “G0/G1 (%)” value (HCT116 cells [5]; HCT116, 48 h) was 63.7% and the “G2/M (%)” value (HCT116 cells [5]; HCT116, 48 h) was 19.9%. The “S (%)” value (HCT116 cells [5]; HCT116, 48 h) was 14.4%, the “SubG0 Dead Cells (%)” value (HCT116 cells [5]; HCT116, 48 h) was 1.70% and the “cell cycle effect (in words)” value (HCT116 cells [5]) was “induces G2/M arrest”. For the same molecule, the “G0/G1 (%)” value (SW480 cells [10]; SW480, 24 h) was 59.8%, the “G2M/ (%)” value (SW480 cells [10]; SW480, 24 h) was 19.7% and the “S (%)” value (SW480 cells [10]; SW480, 24 h) was 19.7%. The “SubG0 Dead Cells (%)” value (SW480 cells [10]; SW480, 24 h) was 0.77%, the “cell cycle effect (in words)” value (SW480 cells [10]; SW480, 24 h) was “induces G1 arrest” and the “G0/G1 (%)” value (SW480 cells [10]; SW480, 48 h) was 58.4%. The “G2M/ (%)” value (SW480 cells [10]; SW480, 48 h) was 20.1%, the “S (%)” value (SW480 cells [10]; SW480, 48 h) was 20.0% and the “SubG0 Dead Cells (%)” value (SW480 cells [10]; SW480, 48 h) was 1.05%. The “cell cycle effect (in words)” value (SW480 cells [10]; SW480, 48 h) was “S-phase arrest”, the IC50 ([6]; 48 hours, Colon cancer cell lines) was < 0.3 µM and the “inhibition” value [6] was “potent inhibitor”. The colony formation (HCT116 cells [7]) was “inhibit colony formation”, the colonosphere formation (HCT116 cells [11]) was “inhibits colonosphere formation” and the tumor volume [9, 13] was “significantly reduced”. The tumor weight [9, 13] was “significantly reduced”.
In the case of `C/C(=N\NC(=O)c1cccnc1)c1ccc2ccccc2c1O` [MRL17], the IC50 ([1]; HCT116, 24 h) is reported as > 2 µM, the IC50 ([1]; HCT116, 48 h) is reported as 1 µM and the IC50 ([1]; HCT116, 72 h) is reported as 0.8 µM. The IC50 (SW480 colon cancer cells; SW480, 24 h) was > 2 µM, the IC50 (SW480 colon cancer cells; SW480, 48 h) was 1 µM and the IC50 (SW480 colon cancer cells; SW480, 72 h) was 0.6 µM. The IC50 ([2]; MiaPaCa-2, 24 h) was > 10 µM, the IC50 ([2]; MiaPaCa-2, 48 h) was > 10 µM and the IC50 ([2]; MiaPaCa-2, 72 h) was 5 µM. For the same molecule, the IC50 ([3]; PANC-1, 24 h) was > 10 µM, the IC50 ([3]; PANC-1, 48 h) was 3 µM and the IC50 ([3]; PANC-1, 72 h) was 1 µM. The “G0/G1 (%)” value (HCT116 cells [5]; HCT116, 24 h) was 63.9%, the “G2/M (%)” value (HCT116 cells [5]; HCT116, 24 h) was 20.9% and the “S (%)” value (HCT116 cells [5]; HCT116, 24 h) was 14.0%. For the same molecule, the “SubG0 Dead Cells (%)” value (HCT116 cells [5]; HCT116, 24 h) was 0.99%, the “G0/G1 (%)” value (HCT116 cells [5]; HCT116, 48 h) was 63.1% and the “G2/M (%)” value (HCT116 cells [5]; HCT116, 48 h) was 20.8%. For the same molecule, the “S (%)” value (HCT116 cells [5]; HCT116, 48 h) was 14.3%, the “SubG0 Dead Cells (%)” value (HCT116 cells [5]; HCT116, 48 h) was 1.57% and the “cell cycle effect (in words)” value (HCT116 cells [5]) was “induces G2/M arrest”. For the same molecule, the “G0/G1 (%)” value (SW480 cells [10]; SW480, 24 h) was 54.9%, the “G2M/ (%)” value (SW480 cells [10]; SW480, 24 h) was 22.0% and the “S (%)” value (SW480 cells [10]; SW480, 24 h) was 22.3%. The “SubG0 Dead Cells (%)” value (SW480 cells [10]; SW480, 24 h) was 0.50%, the “cell cycle effect (in words)” value (SW480 cells [10]; SW480, 24 h) was “induces G1 arrest” and the “G0/G1 (%)” value (SW480 cells [10]; SW480, 48 h) was 59.3%. The “G2M/ (%)” value (SW480 cells [10]; SW480, 48 h) was 18.3%, the “S (%)” value (SW480 cells [10]; SW480, 48 h) was 20.8% and the “SubG0 Dead Cells (%)” value (SW480 cells [10]; SW480, 48 h) was 1.12%. The “cell cycle effect (in words)” value (SW480 cells [10]; SW480, 48 h) was “S-phase arrest”, the “inhibition” value [6] was “potent inhibitor” and the colony formation (HCT116 cells [7]) was “inhibit colony formation”. For the same molecule, the colonosphere formation (HCT116 cells [11]) was “inhibits colonosphere formation”.
